Reference: PMC12356538, “Targeting the SARS-CoV‑2 RNA Translation Initiation Element SL1 by Molecules of Low Molecular Weight” (Journal of the American Chemical Society, 2025)
Like-named read-outs stand apart in the source and are kept apart here.

How the values were obtained:
[1] = tested on: SARS-CoV-2 SL1 RNA (SL1 wt); type: binding; details: for wLOGSY factor / T2 reduction [%] / CSP [Hz]: 10 μM SL1 wt, 200 μM ligand; for wLOGSY factor / T2 reduction [%]: pH 6.2; for T2 reduction [%]: CPMG 100 vs 5 ms; for Rank: FBS ranking from summed ranks of CSP, wLOGSY and T2 results; for CSP [Hz]: ligand 1H CSP, [RNA]:[ligand] 1:20, pH 6.2; for FBS binding to SL1, in words: ligand-detected NMR
SL1 Δbulge RNA = type: binding, SARS-CoV-2
SL1 RNA = test: RNA-detected NMR binding site mapping (2D-1H,1H-TOCSY and 1D-1H); design: species or system SARS-CoV-2; details: for 1H,1H CSPs [ppm] C16H5-H6 / 1H,1H CSPs [ppm] C19H5-H6 / 1H,1H CSPs [ppm] C20H5-H6 / 1H,1H CSPs [ppm] C21H5-H6 / 1H,1H CSPs [ppm] C28H5-H6 / 1H,1H CSPs [ppm] C33H5-H6 / 1H,1H CSPs [ppm] C34H5-H6 / 1H,1H CSPs [ppm] U9H5-H6 / 1H,1H CSPs [ppm] U10H5-H6 / 1H,1H CSPs [ppm] U11H5-H6 / 1H,1H CSPs [ppm] U13H5-H6 / 1H,1H CSPs [ppm] U17H5-H6 / 1H,1H CSPs [ppm] U18H5-H6 / 1H,1H CSPs [ppm] U25H5-H6 / 1H,1H CSPs [ppm] C15H5-H6 / 1H,1H CSPs [ppm] C32H5-H6: 2D TOCSY, RNA 150 μM, compound 1 mM, 298 K; for 1H CSPs [ppm] A12H2 / 1H CSPs [ppm] A29H2: RNA-detected 1D-1H
[2] = tested on: β-Globin-Nanoluciferase mRNA; test: Cell-free translation assay in rabbit reticulocyte lysate, Nanoluciferase readout; type: biochemical; details: 0.2 μM mRNA, 2 μM compound
[3] = tested on: SL1 (wt)-Nanoluciferase mRNA; type: biochemical, SARS-CoV-2
[4] = tested on: SL1 Δbulge-Nanoluciferase mRNA; type: biochemical, SARS-CoV-2
SL1 wt RNA = test: NMR-based KD estimation, ligand-detected 1D-1H titration; type: binding, SARS-CoV-2
[5] = pH 6.2
[6] = Suppl. Table 7, ligand constant at 100, SL1 wt RNA concentration 0-250, read-out: KDest
[7] = ligand 100 μM, SL1 RNA 0 to 200 or 250 μM, 298 K, 600 MHz, pH 6.2, read-out: KD est
[8] = Suppl. Table 7, ligand constant at 100, SL1 wt RNA concentration 0-200, read-out: KDest

| Compound | wLOGSY factor [1] | T2 reduction [%] [1] [%] | Rank ([1]; SL1 wt) | CSP [Hz] [1] [Hz] | 1H,1H CSPs [ppm] C16H5-H6 (SL1 RNA) [ppm] | 1H,1H CSPs [ppm] C19H5-H6 (SL1 RNA) [ppm] | 1H,1H CSPs [ppm] C20H5-H6 (SL1 RNA) [ppm] | 1H,1H CSPs [ppm] C21H5-H6 (SL1 RNA) [ppm] | 1H,1H CSPs [ppm] C28H5-H6 (SL1 RNA) [ppm] | 1H,1H CSPs [ppm] C33H5-H6 (SL1 RNA) [ppm] | 1H,1H CSPs [ppm] C34H5-H6 (SL1 RNA) [ppm] | 1H,1H CSPs [ppm] U9H5-H6 (SL1 RNA) [ppm] | 1H,1H CSPs [ppm] U10H5-H6 (SL1 RNA) [ppm] | 1H,1H CSPs [ppm] U11H5-H6 (SL1 RNA) [ppm] | 1H,1H CSPs [ppm] U13H5-H6 (SL1 RNA) [ppm] | 1H,1H CSPs [ppm] U17H5-H6 (SL1 RNA) [ppm] | 1H,1H CSPs [ppm] U18H5-H6 (SL1 RNA) [ppm] | 1H,1H CSPs [ppm] U25H5-H6 (SL1 RNA) [ppm] | FBS result (CSP, wLOGSY, T2 reduction) in words (SL1 Δbulge RNA) | Kd (SL1 wt RNA; [8]) [µM] | further results |
| --- | --- | --- | --- | --- | --- | --- | --- | --- | --- | --- | --- | --- | --- | --- | --- | --- | --- | --- | --- | --- | --- |
| CNC(=N)Nc1nc2ccc(OC)cc2s1 [A.4] | 1.21 | 77.83 | 20 | 16.14 | 0.0103 | 0.0293 | 0.0526 | 0.0441 | 0.1355 | 0.0050 | 0.0072 | 0.0130 | 0.0146 | 0.0030 | 0.0999 | 0.0288 | 0.0191 | 0.0099 |  |  | FBS binding to SL1, in words ([1]; SL1 wt): strongest FBS effects; CSP [Hz] (SL1 Δbulge RNA): 8.19 Hz; Rank (SL1 Δbulge RNA): 1; T2 reduction [%] (SL1 Δbulge RNA): 90.18%; wLOGSY factor (SL1 Δbulge RNA): 0.69; binding site / selectivity for the bulge from CSP and LB mapping, in words (SL1 RNA): bound the bulge less selectively; 1H CSPs [ppm] A12H2 (SL1 RNA): 0.1560 ppm; 1H CSPs [ppm] A29H2 (SL1 RNA): 0.0670 ppm; effect on translation of β-globin mRNA, in words [2]: boost; effect on translation of SL1 wt mRNA, in words [3]: inhibitory effect; effect on translation of SL1 Δbulge mRNA, in words [4]: inhibitory effect; Kd (SL1 wt RNA; [6]): 102 µM; Kd (SL1 wt RNA; [7]): 102 ± 8 µM |
| CNC(=O)Nc1nc2c(OC)cc(OC)cc2s1 [A.11] | 1.51 | 93.00 | 19 | 4.50 | 0.0020 | 0.0036 | 0.0045 | 0.0061 | 0.0130 | 0.0010 | 0.0025 | 0.0040 | 0.0072 | 0.0311 | 0.0216 | 0.0010 | 0.0043 | 0.0045 | no effects |  | 1H,1H CSPs [ppm] C15H5-H6 (SL1 RNA): 0.0010 ppm; 1H,1H CSPs [ppm] C32H5-H6 (SL1 RNA): 0.0063 ppm; 1H CSPs [ppm] A12H2 (SL1 RNA): 0.0400 ppm; 1H CSPs [ppm] A29H2 (SL1 RNA): 0.0040 ppm; effect on translation of SL1 wt mRNA, in words [3]: no inhibition |
| CN(C)CC(=O)Nc1nc2ccc([N+](=O)[O-])cc2s1 [A.14] | 0.46 | 100.00 | 9 | 22.20 |  |  |  |  |  |  |  |  |  |  |  |  |  |  | no effects |  | CSP values relative to A.2 ([1]; ligand CSP, SL1 wt): 2–3 times; solubility, in words [5]: poor solubility |
| COc1ccc(-c2nnc(NC(=O)CN(C)C)s2)cc1OC [A.31] | 1.71 | 100.00 | 1 | 24.42 | 0.0073 | 0.0042 | 0.0021 | 0.0010 | 0.0228 | 0.0067 | 0.0204 | 0.0104 | 0.0112 | 0.0256 | 0.0206 | 0.0067 | 0.0021 | 0.0122 | no effects | 146 | binding site / selectivity for the bulge from CSP and LB mapping, in words (SL1 RNA): weaker binding characteristics; 1H,1H CSPs [ppm] C15H5-H6 (SL1 RNA): 0.0032 ppm; 1H,1H CSPs [ppm] C32H5-H6 (SL1 RNA): 0.0130 ppm; 1H CSPs [ppm] A12H2 (SL1 RNA): 0.0630 ppm; 1H CSPs [ppm] A29H2 (SL1 RNA): 0.0000 ppm; effect on translation of SL1 wt mRNA, in words [3]: nonspecific effects; Kd (SL1 wt RNA; [7]): 146 ± 13 µM |
| COc1ccc2nc(NC(=O)CN3CCC[C@H](N)C3)sc2c1 [A.36] | 0.82 | 100.00 | 2 | 30.18 | 0.0076 | 0.0036 | 0.0029 | 0.0010 | 0.0359 | 0.0057 | 0.0079 | 0.0100 | 0.0089 | 0.0063 | 0.0308 | 0.0045 | 0.0039 | 0.0120 | no effects | 218 | FBS binding to SL1, in words ([1]; SL1 wt): positive effect on SL1 binding; binding site / selectivity for the bulge from CSP and LB mapping, in words (SL1 RNA): weaker binding characteristics; 1H,1H CSPs [ppm] C15H5-H6 (SL1 RNA): 0.0010 ppm; 1H,1H CSPs [ppm] C32H5-H6 (SL1 RNA): 0.0186 ppm; 1H CSPs [ppm] A12H2 (SL1 RNA): 0.0727 ppm; effect on translation of β-globin mRNA, in words [2]: increased translation efficiency; effect on translation of SL1 wt mRNA, in words [3]: nonspecific effects; effect on translation of SL1 Δbulge mRNA, in words [4]: increased translation efficiency; Kd (SL1 wt RNA; [7]): 218 ± 90 µM |
| COc1cc(OC)c2nc(NC(=O)CN3CCN(C)CC3)sc2c1 [A.56] | 0.00 | 100.00 | 7 | 31.95 |  |  |  |  |  |  |  |  |  |  |  |  |  |  | no effects | 75.3 |  |
| COc1cc(OC)c2nc(NC(=O)CN3CCNCC3)sc2c1 [A.57] | 0.00 | 100.00 | 6 | 32.79 |  |  |  |  |  |  |  |  |  |  |  |  |  |  |  | 83.7 | CSP [Hz] (SL1 Δbulge RNA): 4.92 Hz; Rank (SL1 Δbulge RNA): 8; T2 reduction [%] (SL1 Δbulge RNA): 47.32%; wLOGSY factor (SL1 Δbulge RNA): 1.07 |
| COc1ccc(-c2nnc(NC(=O)CN3CCC[C@H](N)C3)s2)cc1OC [A.58] | 0.00 | 96.61 | 10 | 39.18 |  |  |  |  |  |  |  |  |  |  |  |  |  |  |  | 77.5 | scoring in the FBS ranking compared with lead A ([1]; SL1 wt): ~4 fold; CSP [Hz] (SL1 Δbulge RNA): 9.24 Hz; Rank (SL1 Δbulge RNA): 2; T2 reduction [%] (SL1 Δbulge RNA): 73.56%; wLOGSY factor (SL1 Δbulge RNA): 0.00 |
| COc1ccc(-c2nnc(NC(=O)CN3CCC[C@@H](N)C3)s2)cc1OC [A.59] | 0.00 | 98.00 | 10 | 38.70 |  |  |  |  |  |  |  |  |  |  |  |  |  |  |  | 90.7 | scoring in the FBS ranking compared with lead A ([1]; SL1 wt): ~4 fold; CSP [Hz] (SL1 Δbulge RNA): 9.18 Hz; Rank (SL1 Δbulge RNA): 4; T2 reduction [%] (SL1 Δbulge RNA): 65.47%; wLOGSY factor (SL1 Δbulge RNA): 0.00 |
| CNC(=O)Nc1nc2ccc(OC)cc2s1 [A] | 0.78 | 66.95 | 37 | 3.96 | 0.0050 | 0.0050 | 0.0050 | 0.0095 | 0.0502 | 0.0042 | 0.0054 | 0.0117 | 0.0179 | 0.0824 | 0.0242 | 0.0100 | 0.0010 | 0.0160 | no effects |  | Normalized FBS score ([1]; SL1 wt): 1.00; 1 - normalized FBS score ([1]; SL1 wt, 0 lowest, 1 highest score): 0.00; FBS score ([1]; SL1 wt, radar chart values): 37; CSP [Hz] (SL1 Δbulge RNA): 0.00 Hz; Normalized abs. CSP SL1 wt - CSP SL1 Δbulge (normalized selectivity score) (SL1 Δbulge RNA): 0.59; abs. CSP SL1 wt - CSP SL1 Δbulge (SL1 Δbulge RNA): 3.96; binding site / selectivity for the bulge from CSP and LB mapping, in words (SL1 RNA): binds selectively to the bulge; 1H,1H CSPs [ppm] C15H5-H6 (SL1 RNA): 0.0081 ppm; 1H,1H CSPs [ppm] C32H5-H6 (SL1 RNA): 0.0124 ppm; 1H CSPs [ppm] A12H2 (SL1 RNA): 0.0041 ppm; effect on translation of β-globin mRNA, in words [2]: increased translation efficiency; solubility, in words [5]: solubility issues; Normalized inhibition rate (normalized activity score) [3]: -0.03; SL1 wt inhibition rate [%] [3]: -1.66%; time-resolved SL1-driven translation, in words [3]: more subtle temporal effects; effect on translation of SL1 Δbulge mRNA, in words [4]: increased translation efficiency; Kd (SL1 wt RNA; [6]): 136 µM; Kd (SL1 wt RNA; [7]): 136 ± 34 µM |
| CC(=O)c1ccc(NC(=O)CN2CCCC2)cc1 [B] |  |  |  |  | 0.0120 | 0.0092 | 0.0030 | 0.0058 | 0.0263 | 0.0110 | 0.0021 | 0.0063 | 0.0122 | 0.0220 | 0.0256 | 0.0061 | 0.0064 | 0.0085 |  |  | 1H,1H CSPs [ppm] C15H5-H6 (SL1 RNA): 0.0208 ppm; 1H,1H CSPs [ppm] C32H5-H6 (SL1 RNA): 0.0336 ppm; solubility, in words [5]: precipitation; Kd (SL1 wt RNA; [6]): 150 µM; Kd (SL1 wt RNA; [7]): 150 ± 46 µM |
